Consider four compounds from patent US4496568A, “Antiinflammatory thieno [2,3-c]pyridine derivatives” (PACOR, priority 1977, dated 1985).

Common to all, as to type: in vivo
Data set [1] deals with localized carrageenin-induced edema. Put plainly: Localized carrageenin-induced edema (anti-inflammatory activity). The settings on record: rats, 100 mg/kg orally 1 hour before, at, and 1 and 2.5 hours after carrageenin, vs reference group. On the procedure: (§1) The pharmacological investigation concerned the anti-inflammatory activity of the compounds of this invention. This activity was investigated according to 2 methods:
(a) Method of localized carrageenin-induced edema
An 1% (0.1 ml) carrageenin solution is injected in the metatarsal flexor muscles of the right hind limb of rats at time 0. The animals of the treated group are additionally administered orally 100 mg/kg body weight of the test derivative, respectively 1 hour prior to injection of the phlogogenic agent, simultaneously with said injection, and then 1 and 2.5 hours thereafter. The determinations effected with a ROCH micrometer at times 0, 1 hour 2 hrs, 3 hrs and 5 hrs after carrageenin administration provide a measure, as a function of time, of the percent anti-inflammatoryactivity, with respect to the reference group.

Data set [2] has as its system ovalbumin-induced systemic edema. Put plainly: Ovalbumin-induced systemic edema (anti-inflammatory activity). To be noted: rats, 100 mg/kg orally 1 hour before and simultaneously with ovalbumin, vs reference group. The method, then:
as §1
(b) Method of the ovalbumin-induced systemic edema
A simultaneous intraperitoneal injection of 1 ml ovalbumin and 0,5 ml of 1% aqueous Evans blue solution is effected in rats. On the other hand, the animals of the treated group are orally administered 100 mg/kg body weight of the test derivative, 1 hour prior to ovalbumin administration and simultaneously therewith. The intensity of the phenomenon thus induced is rated according to a scale from 1 to 5, according to the progress of the inflammatory syndrome. Thus are determined, as a function of time, the mean intensity of the edema and the percent decrease of the edema reaction with respect to the reference group.

In data set [3] the test system is mice. Nature of the data set: Acute intravenous toxicity LD50.

Consider `Oc1cncc2sccc12` [Derivative No. 2, 4-hydroxy-thieno[2,3-c]pyridine], for which, in data set [1], the “Percent anti-inflammatory activity after 1 hr” value was found to be 40%, the “Percent anti-inflammatory activity after 2 hrs” value was determined as 45%, the “Percent anti-inflammatory activity after 3 hrs” value is 49% and the “Percent anti-inflammatory activity after 5 hrs” value was 49%. In addition, in data set [2], the “Percent anti-inflammatory activity after 2 hrs” value is 49% and the “Percent anti-inflammatory activity after 3 hrs” value stood at 58%.

For `Cc1cc2c(O)cncc2s1` [Derivative No. 4, 4-hydroxy-2-methyl-thieno[2,3-c]pyridine], in data set [1], the “Percent anti-inflammatory activity after 1 hr” value stood at 45%, the “Percent anti-inflammatory activity after 2 hrs” value is on record as 49%, the “Percent anti-inflammatory activity after 3 hrs” value turned out to be 50% and the “Percent anti-inflammatory activity after 5 hrs” value stood at 52%. Further, in data set [2], the “Percent anti-inflammatory activity after 2 hrs” value is listed as 48% and the “Percent anti-inflammatory activity after 3 hrs” value is given as 60%.

`Oc1cncc2ccsc12` [Derivative No. 1, 7-hydroxy-thieno[3,2-c]pyridine]: in data set [1], the “Percent anti-inflammatory activity after 1 hr” value came out at 43%, the “Percent anti-inflammatory activity after 2 hrs” value is 46%, the “Percent anti-inflammatory activity after 3 hrs” value came out at 48% and the “Percent anti-inflammatory activity after 5 hrs” value was 49%. In data set [3], this compound showed an LD50 of 131 mg. Also, in data set [2], the “Percent anti-inflammatory activity after 2 hrs” value is given as 44% and the “Percent anti-inflammatory activity after 3 hrs” value was 50%.

As to `Cc1ncc(O)c2ccsc12` [Derivative No. 3, 4-hydroxy-7-methyl-thieno[2,3-c]pyridine], in data set [1], the “Percent anti-inflammatory activity after 1 hr” value turned out to be 42%, the “Percent anti-inflammatory activity after 2 hrs” value is on record as 48%, the “Percent anti-inflammatory activity after 3 hrs” value came out at 52% and the “Percent anti-inflammatory activity after 5 hrs” value was found to be 51%. In data set [2], the “Percent anti-inflammatory activity after 2 hrs” value amounted to 53% and the “Percent anti-inflammatory activity after 3 hrs” value is given as 61%.
